Values belong to the molecule of their own block, whether it stands above or below them.
Tests used:
Dihydrofolate reductase [1] = molecular target: T1, Dihydrofolate reductase (Pneumocystis carinii, UniProt P16184)
T1 sequence (P16184 whole entry): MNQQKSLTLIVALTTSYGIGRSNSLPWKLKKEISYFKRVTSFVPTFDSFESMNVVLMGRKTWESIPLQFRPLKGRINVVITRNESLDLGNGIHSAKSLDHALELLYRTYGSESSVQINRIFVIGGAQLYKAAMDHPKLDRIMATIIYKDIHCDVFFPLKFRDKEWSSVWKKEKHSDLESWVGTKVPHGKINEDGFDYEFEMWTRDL
Description: The ability to inhibit Pneumocystis carinii Dihydrofolate reductase was tested

[2] = molecular target: T2, Bifunctional dihydrofolate reductase-thymidylate synthase (Toxoplasma gondii, UniProt Q07422)
T2 sequence (Q07422 whole entry): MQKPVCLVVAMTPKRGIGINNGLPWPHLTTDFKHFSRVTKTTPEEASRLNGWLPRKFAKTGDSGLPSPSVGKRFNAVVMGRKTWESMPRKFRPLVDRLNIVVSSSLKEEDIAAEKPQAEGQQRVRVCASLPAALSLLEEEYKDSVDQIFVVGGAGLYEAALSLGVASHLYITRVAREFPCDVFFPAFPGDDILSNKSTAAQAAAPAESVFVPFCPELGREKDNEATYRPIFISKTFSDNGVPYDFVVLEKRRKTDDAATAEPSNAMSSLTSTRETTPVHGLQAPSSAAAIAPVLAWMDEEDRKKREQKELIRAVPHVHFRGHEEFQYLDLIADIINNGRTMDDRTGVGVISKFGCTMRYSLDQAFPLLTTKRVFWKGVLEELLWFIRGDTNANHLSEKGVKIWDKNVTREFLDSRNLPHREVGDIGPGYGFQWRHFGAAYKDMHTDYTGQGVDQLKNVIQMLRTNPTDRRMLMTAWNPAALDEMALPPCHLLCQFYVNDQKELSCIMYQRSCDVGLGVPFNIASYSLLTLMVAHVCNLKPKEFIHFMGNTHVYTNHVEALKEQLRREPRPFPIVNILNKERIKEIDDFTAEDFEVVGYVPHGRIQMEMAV
Description: The ability to inhibit Toxoplasma gondii Dihydrofolate reductase was tested

Dihydrofolate reductase [3] = molecular target: T3, Dihydrofolate reductase (Rattus norvegicus, UniProt Q920D2)
T3 sequence (Q920D2 whole entry): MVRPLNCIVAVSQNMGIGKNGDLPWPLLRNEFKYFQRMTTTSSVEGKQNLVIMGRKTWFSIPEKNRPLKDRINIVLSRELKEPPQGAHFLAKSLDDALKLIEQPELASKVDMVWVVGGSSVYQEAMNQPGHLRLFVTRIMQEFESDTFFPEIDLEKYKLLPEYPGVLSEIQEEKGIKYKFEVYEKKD
Description: The ability to inhibit rat liver Dihydrofolate reductase was tested

[4] = The ability to inhibit [3H]- uracil incorporation by Toxoplasma gondii in cultures of HEL cells was tested; format: functional, cell-based, Homo sapiens
[5] = Ratio of the inhibitory concentrations against [3H]-uracil incorporation into nuclear DNA and Toxoplasma gondii (Tg) DHFR; IC50 ([3H]uracil incorporation)/IC50 (Tg); format: functional
SW-620 = test: Compound was tested for the growth inhibition of SW-620 colon tumor cell line; format: functional, cell-based; details: Homo sapiens
SN12C = test: Compound was tested for the growth inhibition of SN12C renal tumor cell line; format: functional, cell-based; details: Homo sapiens
A549 = test: Compound was tested for the growth inhibition of A549 lung tumor cell line; format: functional, cell-based; details: Homo sapiens
UACC-257 = test: Compound was tested for the growth inhibition of UACC-257 melanoma tumor cell line; format: functional, cell-based; details: Homo sapiens
EKVX = test: Compound was tested for the growth inhibition of EKVX lung tumor cell line; format: functional, cell-based; details: Homo sapiens
786-0 = test: Compound was tested for the growth inhibition of 786-0 renal tumor cell line; format: functional, cell-based; details: Homo sapiens
KM12 = test: Compound was tested for the growth inhibition of KM12 colon tumor cell line; format: functional, cell-based; details: Homo sapiens
NCI-H226 = test: Compound was tested for the growth inhibition of NCI-H226 lung tumor cell line; format: functional, cell-based; details: Homo sapiens
MDA-N = test: Compound was tested for the growth inhibition of MDA-N breast carcinoma cell line; format: functional, cell-based; details: Homo sapiens
A498 = test: Compound was tested for the growth inhibition of A498 renal tumor cell line; format: functional, cell-based; details: Homo sapiens
PC-3 = test: Compound was tested for the growth inhibition of PC3 prostate tumor cell line; format: functional, cell-based; details: Homo sapiens
SF-295 = test: Compound was tested for the growth inhibition of SF-295 CNS tumor cell line; format: functional, cell-based; details: Homo sapiens
NCI-H460 = test: Compound was tested for the growth inhibition of NCI-H460 lung tumor cell line; format: functional, cell-based; details: Homo sapiens
ACHN = test: Compound was tested for the growth inhibition of ACHN renal tumor cell line; format: functional, cell-based; details: Homo sapiens
LOX IMVI = test: Compound was tested for the growth inhibition of LOX IMVI melanoma tumor cell line; format: functional, cell-based; details: Homo sapiens
COLO 205 = test: Compound was tested for the growth inhibition of COLO 205 colon tumor cell line; format: functional, cell-based; details: Homo sapiens
OVCAR-8 = test: Compound was tested for the growth inhibition of OVCAR-8 ovarian tumor cell line; format: functional, cell-based; details: Homo sapiens
SF-268 = test: Compound was tested for the growth inhibition of SF-268 CNS tumor cell line; format: functional, cell-based; details: Homo sapiens
IGROV-1 = test: Compound was tested for the growth inhibition of IGROV1 ovarian tumor cell line; format: functional, cell-based; details: Homo sapiens
BT-549 = test: Compound was tested for the growth inhibition of BT-549 breast carcinoma cell line; format: functional, cell-based; details: Homo sapiens
T47D = test: Compound was tested for the growth inhibition of T-47D breast tumor cell line; format: functional, cell-based; details: Homo sapiens
HCT-116 = test: Compound was tested for the growth inhibition of HCT116 colon tumor cell line; format: functional, cell-based; details: Homo sapiens
SK-MEL-5 = test: Compound was tested for the growth inhibition of SK-MEL-5 melanoma tumor cell line; format: functional, cell-based; details: Homo sapiens
OVCAR-3 = test: Compound was tested for the growth inhibition of OVCAR-3 ovarian tumor cell line; format: functional, cell-based; details: Homo sapiens
SF-539 = test: Compound was tested for the growth inhibition of SF-539 CNS tumor cell line; format: functional, cell-based; details: Homo sapiens

SMILES: Nc1nc(N)c2c(n1)CCC(Cc1ccc(Cl)c(Cl)c1)C2 (stereo not given)
IC50 (Dihydrofolate reductase [1]): 15000 nM
IC50 [2]: 2600 nM
IC50 (Dihydrofolate reductase [3]): 7300 nM

SMILES: CCC1CCc2nc(N)nc(N)c2C1 (stereo not given)
IC50 (Dihydrofolate reductase [1]): 6900 nM
IC50 [2]: 1100 nM
IC50 (Dihydrofolate reductase [3]): 3000 nM

SMILES: Nc1nc(N)c2c(n1)CCC(c1ccccc1)C2 (stereo not given)
IC50 (Dihydrofolate reductase [1]): 2200 nM
IC50 [2]: 1300 nM
IC50 (Dihydrofolate reductase [3]): 1900 nM

SMILES: CCc1nc(N)nc(N)c1-c1ccc(Cl)cc1 [PYRIMETHAMINE]
IC50 [4]: 670 nM

SMILES: Nc1nc(N)c2c(n1)CCC(CC1CCCO1)C2 (stereo not given)
IC50 (Dihydrofolate reductase [1]): 880 nM
IC50 [2]: 40 nM
IC50 (Dihydrofolate reductase [3]): 270 nM

SMILES: Nc1nc(N)c2c(n1)CCC(Cc1ccsc1)C2 (stereo not given)
IC50 (Dihydrofolate reductase [1]): 1700 nM
IC50 [2]: 49 nM
IC50 (Dihydrofolate reductase [3]): 130 nM

SMILES: Nc1nc(N)c2c(n1)CCC(Cc1cccs1)C2 (stereo not given)
IC50 (Dihydrofolate reductase [1]): 210 nM
IC50 [2]: 62 nM
IC50 (Dihydrofolate reductase [3]): 80 nM

SMILES: COc1cc(CN2CCc3nc(N)nc(N)c3C2)cc(OC)c1OC
IC50 (Dihydrofolate reductase [1]): 6900 nM
IC50 [2]: 200 nM
IC50 (Dihydrofolate reductase [3]): 2200 nM

SMILES: Nc1nc(N)c2c(n1)CCC(Cc1ccc(OC(F)(F)F)cc1)C2 (stereo not given)
IC50 (Dihydrofolate reductase [1]): 580 nM
IC50 [2]: 73 nM
IC50 (Dihydrofolate reductase [3]): 170 nM

SMILES: COc1ccc(OC)c(CN2CCc3nc(N)nc(N)c3C2)c1
IC50 (Dihydrofolate reductase [1]): 3300 nM
IC50 [2]: 300 nM
IC50 (Dihydrofolate reductase [3]): 1400 nM

Second part, led by results:

IC50 (Dihydrofolate reductase [1]): 400 nM
IC50 (Dihydrofolate reductase [3]): 190 nM
SMILES: Nc1nc(N)c2c(n1)CCC(Cc1cccc(C(F)(F)F)c1)C2 (stereo not given)
IC50 [2]: 140 nM

IC50 (Dihydrofolate reductase [1]): 270 nM
IC50 (Dihydrofolate reductase [3]): 110 nM
SMILES: COc1cccc(CC2CCc3nc(N)nc(N)c3C2)c1 (stereo not given)
IC50 [2]: 21 nM

IC50 (Dihydrofolate reductase [1]): 290 nM
IC50 (Dihydrofolate reductase [3]): 180 nM
SMILES: Nc1nc(N)c2c(n1)CCC(Cc1ccccc1)C2 (stereo not given)
IC50 [4]: 250 nM
Ratio [5]: 7.8
IC50 [2]: 32 nM

IC50 (SW-620): 990 nM
IC50 (A549): 60 nM
IC50 (786-0): 60 nM
IC50 (Dihydrofolate reductase [1]): 100 nM
IC50 (NCI-H226): 12000 nM
IC50 (PC-3): 72 nM
IC50 (NCI-H460): 40 nM
IC50 (ACHN): 240 nM
IC50 (COLO 205): 3800 nM
IC50 (OVCAR-8): 21000 nM
IC50 (BT-549): 270 nM
IC50 (T47D): 19000 nM
IC50 (HCT-116): 40 nM
IC50 (Dihydrofolate reductase [3]): 63 nM
SMILES: COc1ccc(CC2CCc3nc(N)nc(N)c3C2)cc1OC (stereo not given)
IC50 [4]: 81 nM
IC50 (SN12C): 23000 nM
IC50 (UACC-257): 15000 nM
IC50 (EKVX): 5700 nM
IC50 (KM12): 1300 nM
IC50 (MDA-N): 51 nM
IC50 (A498): 24000 nM
Ratio [5]: 3.5
IC50 [2]: 23 nM
IC50 (SF-295): 250 nM
IC50 (LOX IMVI): 70 nM
IC50 (SF-268): 300 nM
IC50 (IGROV-1): 130 nM

IC50 (Dihydrofolate reductase [1]): 180 nM
IC50 (Dihydrofolate reductase [3]): 65 nM
SMILES: CC(C)(C)C1CCc2nc(N)nc(N)c2C1 (stereo not given)
IC50 [2]: 18 nM

IC50 (Dihydrofolate reductase [1]): 100 nM
IC50 (Dihydrofolate reductase [3]): 79 nM
SMILES: Nc1nc(N)c2c(n1)CCC(Cc1cccc(OC(F)(F)F)c1)C2 (stereo not given)
IC50 [4]: 130 nM
Ratio [5]: 9.3
IC50 [2]: 14 nM

IC50 (Dihydrofolate reductase [1]): 450 nM
IC50 (Dihydrofolate reductase [3]): 120 nM
SMILES: COc1ccccc1CC1CCc2nc(N)nc(N)c2C1 (stereo not given)
IC50 [2]: 14 nM

IC50 (A549): 780 nM
IC50 (SK-MEL-5): 80 nM
IC50 (786-0): 60 nM
IC50 (Dihydrofolate reductase [1]): 91 nM
IC50 (PC-3): 190 nM
IC50 (OVCAR-3): 9800 nM
IC50 (NCI-H460): 60 nM
IC50 (ACHN): 270 nM
IC50 (COLO 205): 1600 nM
IC50 (BT-549): 11000 nM
IC50 (T47D): 22000 nM
IC50 (HCT-116): 50 nM
IC50 (Dihydrofolate reductase [3]): 38 nM
SMILES: COc1cc(CC2CCc3nc(N)nc(N)c3C2)cc(OC)c1OC (stereo not given)
IC50 [4]: 210 nM
IC50 (SN12C): 36000 nM
IC50 (UACC-257): 27000 nM
IC50 (EKVX): 710 nM
IC50 (KM12): 1300 nM
IC50 (A498): 21000 nM
Ratio [5]: 8.8
IC50 [2]: 24 nM
IC50 (SF-295): 250 nM
IC50 (SF-539): 1000 nM
IC50 (LOX IMVI): 80 nM
IC50 (SF-268): 190 nM
IC50 (IGROV-1): 190 nM

IC50 (SW-620): 320 nM
IC50 (A549): < 10 nM
IC50 (786-0): 60 nM
IC50 (Dihydrofolate reductase [1]): 57 nM
IC50 (NCI-H226): 31000 nM
IC50 (PC-3): 35 nM
IC50 (OVCAR-3): 15000 nM
IC50 (NCI-H460): < 10 nM
IC50 (COLO 205): 10000 nM
IC50 (OVCAR-8): 21000 nM
IC50 (BT-549): 330 nM
IC50 (T47D): 20000 nM
IC50 (HCT-116): < 10 nM
IC50 (Dihydrofolate reductase [3]): 34 nM
SMILES: COc1ccc(OC)c(CC2CCc3nc(N)nc(N)c3C2)c1 (stereo not given)
IC50 (SN12C): 15000 nM
IC50 (UACC-257): 8400 nM
IC50 (EKVX): 16000 nM
IC50 (KM12): 2700 nM
IC50 (MDA-N): < 10 nM
IC50 (A498): 10000 nM
IC50 [2]: 21 nM
IC50 (SF-539): 430 nM
IC50 (LOX IMVI): 60 nM

IC50 (Dihydrofolate reductase [1]): 340 nM
IC50 (Dihydrofolate reductase [3]): 110 nM
SMILES: Cc1cccc(CC2CCc3nc(N)nc(N)c3C2)c1 (stereo not given)
IC50 [2]: 36 nM

IC50 (Dihydrofolate reductase [1]): 440 nM
IC50 (Dihydrofolate reductase [3]): 77 nM
SMILES: COc1ccc(CC2CCc3nc(N)nc(N)c3C2)cc1 (stereo not given)
IC50 [2]: 50 nM

IC50 (Dihydrofolate reductase [1]): 250 nM
IC50 (Dihydrofolate reductase [3]): 110 nM
SMILES: Cc1ccccc1CC1CCc2nc(N)nc(N)c2C1 (stereo not given)
IC50 [2]: 23 nM

Reference: ChEMBL document CHEMBL1132605 (J Med Chem, 1999)
